# According to patent publication US12492181B2, “Gem-disubstituted piperidine melanocortin subtype-2 receptor (MC2R) antagonists and uses thereof” (Crinetics Pharmaceuticals, Inc., priority 2019, dated 2025):
# Molecular target: T1, hMC2 receptor (crude hMC2R membranes from CRE-bla-CHO-K1 cells stably expressing hMC2 receptor and hMRAP accessory protein) (Homo sapiens, UniProt Q01718)
# T1 construct: crude membrane fractions
# Test: hMC2 membrane binding assay ([125I]ACTH (1-39) Tyr23, SPA)
# Details: displacement of 0.2 nM [125I]ACTH (1-39) Tyr23 from hMC2R membranes, 1.5 hours at room temperature; read-out: MC2R binding potency
# Summary of the method: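 Ki values come from non-linear regression of SPA scintillation counts, with compounds displacing [125I]ACTH(1-39) Tyr23. Membranes come from CRE-bla-CHO-K1 cells stably expressing hMC2 receptor together with hMRAP. They are preincubated with WGA-coated PVT SPA beads in 50 mM HEPES pH 7.4 with 0.20% BSA, Mg2+, Ca2+ and protease inhibitors.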
# T1 sequence (Q01718 whole entry): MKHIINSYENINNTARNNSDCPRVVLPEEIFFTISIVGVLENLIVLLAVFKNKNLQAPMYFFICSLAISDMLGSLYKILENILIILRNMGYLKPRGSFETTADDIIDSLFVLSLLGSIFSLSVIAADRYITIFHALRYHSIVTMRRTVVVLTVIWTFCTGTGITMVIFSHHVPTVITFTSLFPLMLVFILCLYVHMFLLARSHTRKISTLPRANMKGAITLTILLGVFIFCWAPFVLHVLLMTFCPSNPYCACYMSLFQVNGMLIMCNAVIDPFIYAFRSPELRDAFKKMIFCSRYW
# T1 sequence (Q8TCY5 whole entry partner): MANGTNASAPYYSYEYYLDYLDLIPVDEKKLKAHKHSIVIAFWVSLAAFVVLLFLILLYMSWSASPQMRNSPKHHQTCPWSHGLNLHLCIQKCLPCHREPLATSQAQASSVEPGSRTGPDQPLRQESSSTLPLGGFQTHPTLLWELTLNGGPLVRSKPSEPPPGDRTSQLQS
row,Ki [nM],SMILES
1,< 10,"CCOc1ncccc1-c1ccc(C2(C(=O)N[C@@H](C)CN(C)C)CCN(c3ccc(Cl)cc3Cl)CC2)cn1 [Compound 1-318, 1-(2,4-dichlorophenyl)-N-[(2S)-1-(dimethylamino)propan-2-yl]-4-{2′-ethoxy-[2,3′-bipyridin]-5-yl}piperidine-4-carboxamide]"
2,< 10,"CCOc1ncccc1-c1ncc(C2(C(=O)N[C@@H](C)CN(C)C)CCN(c3ccc(C(F)(F)F)cc3C#N)CC2)cc1F [Compound 1-319, 1-[2-cyano-4-(trifluoromethyl)phenyl]-N-[(2S)-1-(dimethylamino)propan-2-yl]-4-{2′-ethoxy-3-fluoro-[2,3′-bipyridin]-5-yl}piperidine-4-carboxamide]"
3,< 10,"CCOc1ncccc1-c1ncc(C2(C(=O)N[C@@H](C)CNC)CCN(c3ccc(C(F)(F)F)cc3C#N)CC2)cc1F [Compound 1-320, 1-[2-cyano-4-(trifluoromethyl)phenyl]-4-{2′-ethoxy-3-fluoro-[2,3′-bipyridin]-5-yl}-N-[(2S)-1-(methylamino)propan-2-yl]piperidine-4-carboxamide]"
4,< 10,"CCOc1ncccc1-c1ccc(C2(C(=O)N[C@@H](C)CNC)CCN(c3ccc(C(F)(F)F)cc3F)CC2)cn1 [Compound 1-321, 4-{2′-ethoxy-[2,3′-bipyridin]-5-yl}-1-[2-fluoro-4-(trifluoromethyl)phenyl]-N-[(2S)-1-(methylamino)propan-2-yl]piperidine-4-carboxamide]"
5,< 10,"CCOc1ncccc1-c1ccc(C2(C(=O)N[C@@H](C)CNC)CCN(c3ccc(Cl)cc3Cl)CC2)cn1 [Compound 1-322, 1-(2,4-dichlorophenyl)-4-{2′-ethoxy-[2,3′-bipyridin]-5-yl}-N-[(2S)-1-(methylamino)propan-2-yl]piperidine-4-carboxamide]"
6,< 10,"CCOc1ncccc1-c1ncc(C2(C(=O)N[C@@H](C)CNC)CCN(c3ccc(Cl)cc3C#N)CC2)cc1F [Compound 1-323, 1-(4-chloro-2-cyanophenyl)-4-{2′-ethoxy-3-fluoro-[2,3′-bipyridin]-5-yl}-N-[(2S)-1-(methylamino)propan-2-yl]piperidine-4-carboxamide]"
7,< 10,"C[C@@H](CN(C)C)NC(=O)C1(c2cnc(-c3cccn3C)c(F)c2)CCN(c2ccc(C(F)(F)F)cc2C#N)CC1 [Compound 1-324, 1-[2-cyano-4-(trifluoromethyl)phenyl]-N-[(2S)-1-(dimethylamino)propan-2-yl]-4-[5-fluoro-6-(1-methyl-1H-pyrrol-2-yl)pyridin-3-yl]piperidine-4-carboxamide]"
8,< 10,"CCOc1ncccc1-c1ncc(C2(C(=O)N[C@@H](C)CN(C)C)CCN(c3ccc(Cl)cc3C#N)CC2)cc1F [Compound 1-325, 1-(4-chloro-2-cyanophenyl)-N-[(2S)-1-(dimethylamino)propan-2-yl]-4-{2′-ethoxy-3-fluoro-[2,3′-bipyridin]-5-yl}piperidine-4-carboxamide]"
9,< 10,"CNC[C@H](C)NC(=O)C1(c2cnc(-c3cccn3C)c(F)c2)CCN(c2ccc(C(F)(F)F)cc2C#N)CC1 [Compound 1-326, 1-[2-cyano-4-(trifluoromethyl)phenyl]-4-[5-fluoro-6-(1-methyl-1H-pyrrol-2-yl)pyridin-3-yl]-N-[(2S)-1-(methylamino)propan-2-yl]piperidine-4-carboxamide]"
10,10 to 100,"COc1ccccc1-c1ccc(C2(C(=O)NC[C@H]3CN(C)CCO3)CCN(c3ccc(C(F)(F)F)cc3C#N)CC2)cn1 [Compound 1-327, 1-[2-cyano-4-(trifluoromethyl)phenyl]-4-[6-(2-methoxyphenyl)pyridin-3-yl]-N-{[(2S)-4-methylmorpholin-2-yl]methyl}piperidine-4-carboxamide]"
11,10 to 100,"COc1ccccc1-c1ccc(C2(C(=O)NC[C@H]3COCCN3C)CCN(c3ccc(C(F)(F)F)cc3C#N)CC2)cn1 [Compound 1-328, 1-[2-cyano-4-(trifluoromethyl)phenyl]-4-[6-(2-methoxyphenyl)pyridin-3-yl]-N-{[(3S)-4-methylmorpholin-3-yl]methyl}piperidine-4-carboxamide]"
12,< 10,"COc1ccccc1-c1ccc(C2(C(=O)NC[C@@H]3COCCN3C)CCN(c3ccc(C(F)(F)F)cc3C#N)CC2)cn1 [Compound 1-329, 1-[2-cyano-4-(trifluoromethyl)phenyl]-4-[6-(2-methoxyphenyl)pyridin-3-yl]-N-{[(3R)-4-methylmorpholin-3-yl]methyl}piperidine-4-carboxamide]"
13,10 to 100,"COc1ccccc1-c1ccc(C2(C(=O)NC[C@@H]3CN(C)CCO3)CCN(c3ccc(C(F)(F)F)cc3C#N)CC2)cn1 [Compound 1-330, 1-[2-cyano-4-(trifluoromethyl)phenyl]-4-[6-(2-methoxyphenyl)pyridin-3-yl]-N-{[(2R)-4-methylmorpholin-2-yl]methyl}piperidine-4-carboxamide]"
14,< 10,"CCOc1ncccc1-c1ccc(C2(C(=O)NCCN(C)C)CCN(c3ccc(C(F)(F)F)cc3C#N)CC2)nn1 [Compound 1-331, 1-[2-cyano-4-(trifluoromethyl)phenyl]-N-[2-(dimethylamino)ethyl]-4-[6-(2-ethoxypyridin-3-yl)pyridazin-3-yl]piperidine-4-carboxamide]"
15,< 10,"CCOc1ncccc1-c1ccc(C2(C(=O)NC[C@H](C)N(C)C)CCN(c3ccc(C(F)(F)F)cc3C#N)CC2)cn1 [Compound 1-332, 1-[2-cyano-4-(trifluoromethyl)phenyl]-N-[(2S)-2-(dimethylamino)propyl]-4-{2′-ethoxy-[2,3′-bipyridin]-5-yl}piperidine-4-carboxamide]"
16,< 10,"CCOc1ncccc1-c1ccc(C2(C(=O)NC[C@@H](C)N(C)C)CCN(c3ccc(C(F)(F)F)cc3C#N)CC2)cn1 [Compound 1-333, 1-[2-cyano-4-(trifluoromethyl)phenyl]-N-[(2R)-2-(dimethylamino)propyl]-4-{2′-ethoxy-[2,3′-bipyridin]-5-yl}piperidine-4-carboxamide]"
17,< 10,"CCOc1ncccc1-c1ncc(C2(C(=O)NC[C@H](CO)N(C)C)CCN(c3ccc(C(F)(F)F)cc3C#N)CC2)cc1F [Compound 1-334, 1-[2-cyano-4-(trifluoromethyl)phenyl]-N-[(2R)-2-(dimethylamino)-3-hydroxypropyl]-4-{2′-ethoxy-3-fluoro-[2,3′-bipyridin]-5-yl}piperidine-4-carboxamide]"
18,< 10,"CCOc1ncccc1-c1ccc(C2(C(=O)NCCN(C)C)CCN(c3ccc(C(F)(F)F)cc3F)CC2)nn1 [Compound 1-335, N-[2-(dimethylamino)ethyl]-4-[6-(2-ethoxypyridin-3-yl)pyridazin-3-yl]-1-[2-fluoro-4-(trifluoromethyl)phenyl]piperidine-4-carboxamide]"
19,10 to 100,"CCOc1ncccc1-c1ccc(C2(OCCN(C)C)CCN(c3ccc(C(F)(F)F)cc3C#N)CC2)cc1 [Compound 2-1, 2-{4-[2-(dimethylamino)ethoxy]-4-[4-(2-ethoxypyridin-3-yl)phenyl]piperidin-1-yl}-5-(trifluoromethyl)benzonitrile]"
20,10 to 100,"CCOc1ncccc1-c1ccc(C2(OC(=O)NCCN(C)C)CCN(c3ccc(C(F)(F)F)cc3C#N)CC2)cc1 [Compound 2-2, 1-[2-cyano-4-(trifluoromethyl)phenyl]-4-[4-(2-ethoxypyridin-3-yl)phenyl]piperidin-4-yl N-[2-(dimethylamino)ethyl]carbamate]"
21,10 to 100,"CCOc1ncccc1-c1ccc(C2(NC(=O)CCN)CCN(c3ccc(C(F)(F)F)cc3C#N)CC2)cc1 [Compound 2-3, 3-amino-N-{1-[2-cyano-4-(trifluoromethyl)phenyl]-4-[4-(2-ethoxypyridin-3-yl)phenyl]piperidin-4-yl}propanamide]"
22,< 10,"CCOc1ncccc1-c1ccc(C2(NC(=O)CCN)CCN(c3ccc(C(F)(F)F)cc3C#N)CC2)cn1 [Compound 2-4, 3-amino-N-{1-[2-cyano-4-(trifluoromethyl)phenyl]-4-{2′-ethoxy-[2,3′-bipyridin]-5-yl}piperidin-4-yl}propanamide]"
23,< 10,"CCOc1ncccc1-c1ccc(C2(NC(=O)CCNC)CCN(c3ccc(C(F)(F)F)cc3C#N)CC2)cn1 [Compound 2-5, N-{1-[2-cyano-4-(trifluoromethyl)phenyl]-4-{2′-ethoxy-[2,3′-bipyridin]-5-yl}piperidin-4-yl}-3-(methylamino)propanamide]"
24,< 10,"CCOc1ncccc1-c1ccc(C2(NC(=O)[C@@H]3CCNC3)CCN(c3ccc(C(F)(F)F)cc3C#N)CC2)cn1 [Compound 2-6, (3R)—N-{1-[2-cyano-4-(trifluoromethyl)phenyl]-4-{2′-ethoxy-[2,3′-bipyridin]-5-yl}piperidin-4-yl}pyrrolidine-3-carboxamide]"
25,< 10,"CCOc1ncccc1-c1ccc(C2(NC(=O)[C@@H]3CCN(C)C3)CCN(c3ccc(C(F)(F)F)cc3C#N)CC2)cn1 [Compound 2-7, (3R)—N-{1-[2-cyano-4-(trifluoromethyl)phenyl]-4-{2′-ethoxy-[2,3′-bipyridin]-5-yl}piperidin-4-yl}-1-methylpyrrolidine-3-carboxamidev]"
26,< 10,"CCOc1ncccc1-c1ccc(C2(NC(=O)[C@H]3CCNC3)CCN(c3ccc(C(F)(F)F)cc3C#N)CC2)cn1 [Compound 2-8, (3S)—N-{1-[2-cyano-4-(trifluoromethyl)phenyl]-4-{2′-ethoxy-[2,3′-bipyridin]-5-yl}piperidin-4-yl}pyrrolidine-3-carboxamide]"
27,< 10,"CCOc1ncccc1-c1ccc(C2(NC(=O)[C@H]3CCN(C)C3)CCN(c3ccc(C(F)(F)F)cc3C#N)CC2)cn1 [Compound 2-9, (3S)—N-{1-[2-cyano-4-(trifluoromethyl)phenyl]-4-{2′-ethoxy-[2,3′-bipyridin]-5-yl}piperidin-4-yl}-1-methylpyrrolidine-3-carboxamide]"
